Reference: patent US8273890B2 (4SC AG, priority 2007, dated 2012)

Biological target: T1, recombinant Plk1 protein (Homo sapiens, UniProt P53350)
T1 construct: histidine tag (N); made in house; host or cells: SF9 insect cells
Assay: Plk1 kinase activity inhibition assay (33P-ATP, alpha casein substrate, flash plates)
Type: biochemical
Conditions: enzymatic assay, 100 nM Li-ATP, 80 minutes at 30° C.
Description: The inhibition of Plk1 kinase activity can be measured using recombinant Plk1 protein expressed as an N-terminally histidine-tagged protein in SF9 insect cells and alpha casein as substrate. The Plk1 assay is run in 96 well plates by incubating 50 to 100 ng per well recombinant Plk1, 500 ng per well alpha casein (Sigma, # C-6780) as substrate, 10 μl of compound of invention (test compounds were dissolved as 20 mM solutions in dimethylsulfoxide (DMSO) and subsequently diluted), and 100 nM Li-ATP (including ^33P-ATP) in 100 μl of reaction buffer ([…] HEPES, pH 7.5; 3 mM MgCl2; 3 mM MnCl2; 3 μM Na-Orthovanadat; 1 mM DTT; 1 μg/ml PEG 8000) for 80 minutes at 30° C. The reactions are terminated by adding 100 μl stopping buffer (2% H3PO4 for 5 minutes) and are washed 3 times with washing solution (0.9% NaCl). Determining ^33P incorporated into the protein substrate alpha casein, the detection is based on the adhesion of the phosphorylated protein to the surface of scintillator-coated flash plates (Perkin Elmer, USA; #SMP-200). Phosphorylation of alpha casein is measured by counting the radioactivity bound to the plate for 60 sec. using a plate reader (Perkin Elmer, USA; Wallac Microbeta). By this method, the IC50 value of the Plk1 inhibition is determined as described above.

T1 sequence (P53350 whole entry): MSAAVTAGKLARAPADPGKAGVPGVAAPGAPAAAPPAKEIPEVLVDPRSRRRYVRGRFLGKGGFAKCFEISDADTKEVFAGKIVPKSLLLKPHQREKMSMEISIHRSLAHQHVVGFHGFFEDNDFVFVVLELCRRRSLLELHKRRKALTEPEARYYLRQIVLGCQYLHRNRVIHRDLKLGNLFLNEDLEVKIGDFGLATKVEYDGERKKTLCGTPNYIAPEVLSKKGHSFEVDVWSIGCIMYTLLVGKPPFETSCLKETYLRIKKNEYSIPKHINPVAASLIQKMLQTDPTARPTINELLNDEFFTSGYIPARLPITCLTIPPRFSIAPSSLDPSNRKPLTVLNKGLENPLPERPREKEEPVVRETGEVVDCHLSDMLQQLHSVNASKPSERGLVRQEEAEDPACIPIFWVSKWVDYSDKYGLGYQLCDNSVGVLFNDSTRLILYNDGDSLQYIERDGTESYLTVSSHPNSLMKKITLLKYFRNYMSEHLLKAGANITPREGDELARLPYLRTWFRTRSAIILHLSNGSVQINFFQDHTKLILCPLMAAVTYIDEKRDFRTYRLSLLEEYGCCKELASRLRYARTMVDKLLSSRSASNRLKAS

SMILES	IC50
Cc1ccccc1C(C)Oc1cc(-n2cnc3cnc(CN4CCN(C(C)C)CC4)cc32)sc1C(N)=O (stereo not shown) [Example 149, 5-{6-[(4-isopropylpiperazin-1-yl)methyl]-1H-imidazo[4,5-c]pyridin-1-yl}-3-[1-(2-methylphenyl)ethoxy]thiophene-2-carboxamide]	0.01 to 0.1 µM
C[C@@H](Oc1cc(-n2cnc3cnc(CN4CCN(C(=O)N(C)C)CC4)cc32)sc1C(N)=O)c1ccccc1Br [Example 133]	< 0.01 µM
C[C@@H](Oc1cc(-n2cnc3cnc(CNCCN4CCOCC4)cc32)sc1C(N)=O)c1ccccc1C(F)(F)F [Example 147, 5-(6-{[(2-morpholin-4-ylethyl)amino]methyl}-1H-imidazo[4,5-c]pyridin-1-yl)-3-{(1R)-1-[2-(trifluoromethyl)phenyl]ethoxy}thiophene-2-carboxamide]	0.01 to 0.1 µM
C[C@@H](Oc1cc(-n2cnc3cnc(CN4CCN(C(=O)N(C)C)CC4)cc32)sc1C(N)=O)c1ccccc1C(F)(F)F [Example 68, 4-{[1-(5-carbamoyl-4-{(1R)-1-[2-(trifluoromethyl)phenyl]ethoxy}-2-thienyl)-1H-imidazo[4,5-c]pyridin-6-yl]methyl}-N,N-dimethylpiperazine-1-carboxamide]	< 0.01 µM
C[C@@H](Oc1cc(-n2cnc3cnc(CN4CCN(C)CC4)cc32)sc1C(N)=O)c1ccccc1Cl [Example 100, 3-[(1R)-1-(2-chlorophenyl)ethoxy]-5-{6-[(4-methylpiperazin-1-yl)methyl]-1H-imidazo[4,5-c]pyridin-1-yl}thiophene-2-carboxamide]	< 0.01 µM
CC(Oc1cc(-n2cnc3cnc(CO)cc32)sc1C(N)=O)c1ccc(F)cc1C(F)(F)F (stereo not shown) [Example 51, 3-{1-[4-fluoro-2-(trifluoromethyl)phenyl]ethoxy}-5-[6-(hydroxymethyl)-1H-imidazo[4,5-c]pyridin-1-yl]thiophene-2-carboxamide]	< 0.01 µM
C[C@@H](Oc1cc(-n2cnc3cnc(CN4CCN(C(=O)N(C)C)CC4)cc32)sc1C(N)=O)c1ccccc1Cl [Example 128, 4-[(1-{5-carbamoyl-4-[(1R)-1-(2-chlorophenyl)ethoxy]-2-thienyl}-1H-imidazo[4,5-c]pyridin-6-yl)methyl]-N,N-dimethylpiperazine-1-carboxamide]	< 0.01 µM
CC(=O)N1CCN(Cc2cc3c(cn2)ncn3-c2cc(O[C@H](C)c3ccccc3C(F)(F)F)c(C(N)=O)s2)CC1 [Example 118, 5-{6-[(4-acetylpiperazin-1-yl)methyl]-1H-imidazo[4,5-c]pyridin-1-yl}-3-{(1R)-1-[2-(trifluoromethyl)phenyl]ethoxy}thiophene-2-carboxamide]	0.01 to 0.1 µM
CCC(Oc1cc(-n2cnc3cnc(CO)cc32)sc1C(N)=O)c1ccccc1Cl (stereo not shown) [Example 56, 3-{[1-(2-chlorophenyl)propyl]oxy}-5-[6-(hydroxymethyl)-1H-imidazo[4,5-c]pyridin-1-yl]thiophene-2-carboxamide]	< 0.01 µM
COCCN1CCN(Cc2cc3c(cn2)ncn3-c2cc(O[C@H](C)c3ccccc3C(F)(F)F)c(C(N)=O)s2)CC1 [Example 69, 5-(6-{[4-(2-methoxyethyl)piperazin-1-yl]methyl}-1H-imidazo[4,5-c]pyridin-1-yl)-3-{(1R)-1-[2-(trifluoromethyl)phenyl]ethoxy}thiophene-2-carboxamide]	< 0.01 µM
C[C@@H](Oc1cc(-n2cnc3cnc(CN4CCC(C(=O)N5CCN(C)CC5)CC4)cc32)sc1C(N)=O)c1ccccc1C(F)(F)F [Example 91, 5-[6-({4-[(4-methylpiperazin-1-yl)carbonyl]piperidin-1-yl}methyl)-1H-imidazo[4,5-c]pyridin-1-yl]-3-{(1R)-1-[2-(trifluoromethyl)phenyl]ethoxy}thiophene-2-carboxamide]	0.01 to 0.1 µM
C[C@@H](Oc1cc(-n2cnc3ccncc32)sc1C(N)=O)c1ccccc1Cl [Example 32, 3-[(1R)-1-(2-chlorophenyl)ethoxy]-5-(3H-imidazo[4,5-c]pyridin-3-yl)thiophene-2-carboxamide]	< 0.01 µM
CCN1CCN(Cc2cc3c(cn2)ncn3-c2cc(OC(C)c3ccccc3C)c(C(N)=O)s2)CC1 (stereo not shown) [Example 150, 5-{6-[(4-ethylpiperazin-1-yl)methyl]-1H-imidazo[4,5-c]pyridin-1-yl}-3-[1-(2-methylphenyl)ethoxy]thiophene-2-carboxamide]	0.01 to 0.1 µM
C[C@@H](Oc1cc(-n2cnc3cnc(CN4CCN(S(=O)(=O)N(C)C)CC4)cc32)sc1C(N)=O)c1ccccc1C(F)(F)F [Example 71, 5-[6-({4-[(dimethylamino)sulfonyl]piperazin-1-yl}methyl)-1H-imidazo[4,5-c]pyridin-1-yl]-3-{(1R)-1-[2-(trifluoromethyl)phenyl]ethoxy}thiophene-2-carboxamide]	0.01 to 0.1 µM

Now from value to compound:

IC50	SMILES
< 0.01 µM	C[C@@H](Oc1cc(-n2cnc3cnc(CN4CCC(O)CC4)cc32)sc1C(N)=O)c1ccccc1C(F)(F)F [Example 64, 5-{6-[(4-hydroxypiperidin-1-yl)methyl]-1H-imidazo[4,5-c]pyridin-1-yl}-3-{(1R)-1-[2-(trifluoromethyl)phenyl]ethoxy}thiophene-2-carboxamide]
0.01 to 0.1 µM	CNCc1cc2ncn(-c3cc(O[C@H](C)c4ccccc4C(F)(F)F)c(C(N)=O)s3)c2cn1 [Example 116, 5-{6-[(methylamino)methyl]3H-imidazo[4,5-c]pyridin-3-yl}-3-{(1R)-1-[2-(trifluoromethyl)phenyl]ethoxy}thiophene-2-carboxamide]
0.01 to 0.1 µM	CCc1ccccc1COc1cc(-n2cnc3cnc(CO)cc32)sc1C(N)=O [Example 162, 3-[(2-ethylbenzyl)oxy]-5-[6-(hydroxymethyl)-1H-imidazo[4,5-c]pyridin-1-yl]thiophene-2-carboxamide]
0.01 to 0.1 µM	NC(=O)c1sc(-n2cnc3cccnc32)cc1OCc1ccccc1C(F)(F)F [Example 19, 5-(3H-Imidazo[4,5-b]pyridin-3-yl)-3-{[2-(trifluoromethyl)benzyl]oxy}thio-phene-2-carboxamide]
< 0.01 µM	C[C@@H](Oc1cc(-n2cnc3cnc(CN4C[C@@H]5C[C@H]4CN5)cc32)sc1C(N)=O)c1ccccc1C(F)(F)F [Example 95, 5-{6-[(1S,4S)-2,5-diazabicyclo[2.2.1]hept-2-ylmethyl]-1H-imidazo[4,5-c]pyridin-1-yl}-3-{(1R)-1-[2-(trifluoromethyl)phenyl]ethoxy}thiophene-2-carboxamide]
0.1 to 1 µM	CCN(CC)Cc1cc2c(cn1)ncn2-c1cc(OCc2ccccc2C(F)(F)F)c(C(N)=O)s1 [Example 6, 5-{6-[(Diethylamino)methyl]-1H-imidazo[4,5-c]pyridin-1-yl}-3-{[2-(trifluoromethyl)benzyl]oxy}thiophene-2-carboxamide]
0.01 to 0.1 µM	CCNCc1cc2c(cn1)ncn2-c1cc(O[C@H](C)c2ccccc2C(F)(F)F)c(C(N)=O)s1 [Example 112, 5-{6-[(ethylamino)methyl]-1H-imidazo[4,5-c]pyridin-1-yl}-3-{(1R)-1-[2-(trifluoromethyl)phenyl]ethoxy}thiophene-2-carboxamide]
1 to 10 µM	C[C@@H](Oc1cc(-n2cnc3cc(CN4CCN(C)CC4)ncc32)sc1C(N)=O)c1ccccc1C(F)(F)F [Example 49, 5-{6-[(4-methylpiperazin-1-yl)methyl]-3H-imidazo[4,5-c]pyridin-3-yl}-3-{(1R)-1-[2-(trifluoromethyl)phenyl]ethoxy}thiophene-2-carboxamide]
0.01 to 0.1 µM	COc1cc2c(cn1)ncn2-c1cc(OCc2ccccc2C(F)(F)F)c(C(N)=O)s1 [Example 16, 5-(6-Methoxy-1H-imidazo[4,5-c]pyridin-1-yl)-3-{[2-(trifluoromethyl)benzyl]oxy}thiophene-2-carboxamide]
0.1 to 1 µM	NC(=O)c1sc(-n2cnc3cnccc32)cc1OCc1ccc(C(F)(F)F)cc1 [Example 36, 5-(1H-imidazo[4,5-c]pyridin-1-yl)-3-{[4-(trifluoromethyl)benzyl]oxy}thiophene-2-carboxamide]
0.01 to 0.1 µM	CC(Oc1cc(-n2cnc3cnccc32)sc1C(N)=O)c1ccccc1C(F)(F)F (stereo not shown) [Example 14, 5-(1H-Imidazo[4,5-c]pyridin-1-yl)-3-{1-[2-(trifluoromethyl)phenyl]ethoxy}thiophene-2-carboxamide]
0.01 to 0.1 µM	NC(=O)c1sc(-n2cnc3cnc(CO)cc32)cc1OCc1ccccc1C(F)(F)F [Example 9, 5-[6-(Hydroxymethyl)-1H-imidazo[4,5-c]pyridin-1-yl]-3-{[2-(trifluoromethyl)benzyl]oxy}thiophene-2-carboxamide]
0.01 to 0.1 µM	C[C@H](Oc1cc(-n2cnc3cnc(CN4CCN(C)CC4)cc32)sc1C(N)=O)c1ccccc1C(F)(F)F [Example 48, 5-{6-[(4-methylpiperazin-1-yl)methyl]-1H-imidazo[4,5-c]pyridin-1-yl}-3-{(1S)-1-[2-(trifluoromethyl)phenyl]ethoxy}thiophene-2-carboxamide]
0.1 to 1 µM	C[C@H](Oc1cc(-n2cnc3cnc(CO)cc32)sc1C(N)=O)c1ccccc1C(F)(F)F [Example 46, 5-[6-(hydroxymethyl)-1H-imidazo[4,5-c]pyridin-1-yl]-3-{(1S)-1-[2-(trifluoromethyl)phenyl]ethoxy}thiophene-2-carboxamide]
